Activity calls are given as the source filed them. No cut-off for these calls is given here.
Assays:
[1] = target: T1, Eukaryotic elongation factor 2 kinase (Homo sapiens) (UniProt O00418); experiment: Inhibition of eEF2K ATP labeling site in human Huh-7 cell lysate at 1 uM by KiNativ Profiling analysis relative to control; format: subcellular
T1 sequence (whole entry): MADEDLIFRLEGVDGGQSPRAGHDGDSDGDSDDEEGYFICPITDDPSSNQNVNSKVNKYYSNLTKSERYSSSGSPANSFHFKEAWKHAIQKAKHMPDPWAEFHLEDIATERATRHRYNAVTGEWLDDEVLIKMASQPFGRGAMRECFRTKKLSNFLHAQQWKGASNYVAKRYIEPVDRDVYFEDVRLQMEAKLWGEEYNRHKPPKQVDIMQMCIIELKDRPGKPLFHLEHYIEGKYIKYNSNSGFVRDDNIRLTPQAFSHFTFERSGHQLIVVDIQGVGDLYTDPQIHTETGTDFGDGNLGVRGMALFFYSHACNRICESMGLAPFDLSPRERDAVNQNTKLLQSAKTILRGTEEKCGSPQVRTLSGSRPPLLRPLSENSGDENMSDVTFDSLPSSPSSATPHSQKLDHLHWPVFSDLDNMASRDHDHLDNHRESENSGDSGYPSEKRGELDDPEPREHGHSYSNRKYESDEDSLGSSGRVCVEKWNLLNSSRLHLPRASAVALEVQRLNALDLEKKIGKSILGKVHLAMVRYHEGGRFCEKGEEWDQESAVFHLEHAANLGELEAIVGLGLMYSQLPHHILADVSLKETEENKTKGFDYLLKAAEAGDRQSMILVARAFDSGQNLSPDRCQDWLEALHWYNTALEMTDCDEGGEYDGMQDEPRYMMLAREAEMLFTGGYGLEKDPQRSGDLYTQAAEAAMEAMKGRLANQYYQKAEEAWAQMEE

[2] = target: Epidermal growth factor receptor (Homo sapiens) (UniProt P00533); experiment: Inhibition of EGFR (unknown origin) at 1 uM by Ambit Kinomescan binding assay relative to control
[3] = target: Mitogen-activated protein kinase kinase kinase 11 (Homo sapiens) (UniProt Q16584); experiment: Inhibition of MLK3 (unknown origin) at 1 uM by Ambit Kinomescan binding assay relative to control
Mitogen-activated protein kinase kinase kinase 11 (Homo sapiens), sequence (Q16584 whole entry, looked up): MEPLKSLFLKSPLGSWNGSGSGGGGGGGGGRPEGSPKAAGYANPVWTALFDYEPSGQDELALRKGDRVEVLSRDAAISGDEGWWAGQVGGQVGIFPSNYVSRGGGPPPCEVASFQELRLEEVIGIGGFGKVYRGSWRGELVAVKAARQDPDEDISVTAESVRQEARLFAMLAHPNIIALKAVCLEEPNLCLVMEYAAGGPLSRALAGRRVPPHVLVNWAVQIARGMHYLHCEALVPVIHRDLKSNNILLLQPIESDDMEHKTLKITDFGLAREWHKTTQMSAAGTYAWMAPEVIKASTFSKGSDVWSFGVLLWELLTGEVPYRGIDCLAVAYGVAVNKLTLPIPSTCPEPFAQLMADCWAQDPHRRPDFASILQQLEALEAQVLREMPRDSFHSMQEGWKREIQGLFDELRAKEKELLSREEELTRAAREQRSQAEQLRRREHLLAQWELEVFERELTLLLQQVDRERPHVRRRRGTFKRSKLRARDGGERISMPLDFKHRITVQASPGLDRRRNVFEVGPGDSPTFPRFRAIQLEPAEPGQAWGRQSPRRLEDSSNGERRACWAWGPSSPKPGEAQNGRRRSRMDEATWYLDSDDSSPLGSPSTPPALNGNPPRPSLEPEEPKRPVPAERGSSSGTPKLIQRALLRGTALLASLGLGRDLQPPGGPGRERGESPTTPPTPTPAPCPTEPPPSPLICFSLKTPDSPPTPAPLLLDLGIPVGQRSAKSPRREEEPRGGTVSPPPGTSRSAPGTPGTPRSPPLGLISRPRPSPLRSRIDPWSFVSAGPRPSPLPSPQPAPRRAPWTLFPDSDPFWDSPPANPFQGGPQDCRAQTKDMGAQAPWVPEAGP

[4] = target: Cyclin-dependent kinase 7 (Homo sapiens) (UniProt P50613); experiment: Inhibition of CDK7 Lys2 labeling site in human A-375 cells at 0.5 uM by KiNativ Profiling analysis relative to control; format: cell-based
Cyclin-dependent kinase 7 (Homo sapiens), sequence (P50613 whole entry): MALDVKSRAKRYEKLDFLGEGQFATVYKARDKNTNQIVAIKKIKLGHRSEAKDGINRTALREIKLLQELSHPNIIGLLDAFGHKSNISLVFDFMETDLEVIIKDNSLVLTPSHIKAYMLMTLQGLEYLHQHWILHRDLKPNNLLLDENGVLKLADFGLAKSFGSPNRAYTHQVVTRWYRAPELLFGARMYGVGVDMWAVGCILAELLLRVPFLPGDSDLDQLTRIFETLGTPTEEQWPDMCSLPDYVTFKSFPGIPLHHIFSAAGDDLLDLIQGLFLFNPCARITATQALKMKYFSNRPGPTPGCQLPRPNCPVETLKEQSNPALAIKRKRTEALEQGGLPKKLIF

[5] = target: T1, Eukaryotic elongation factor 2 kinase (Homo sapiens); experiment: Inhibition of eEF2K ATP labeling site harbouring YIKYNSNSGFVR in human A-375 cells at 0.5 uM by KiNativ Profiling analysis relative to control; format: cell-based
[6] = test system: Tyrosine-protein kinase ABL1 (Homo sapiens), P00519 [E255K]; experiment: Inhibition of phosphorylated ABL1 E255K mutant (unknown origin) at 1 uM by Ambit Kinomescan binding assay relative to control; values are per cent of control
Tyrosine-protein kinase ABL1 (Homo sapiens), P00519 [E255K], sequence (P00519 whole entry E255K): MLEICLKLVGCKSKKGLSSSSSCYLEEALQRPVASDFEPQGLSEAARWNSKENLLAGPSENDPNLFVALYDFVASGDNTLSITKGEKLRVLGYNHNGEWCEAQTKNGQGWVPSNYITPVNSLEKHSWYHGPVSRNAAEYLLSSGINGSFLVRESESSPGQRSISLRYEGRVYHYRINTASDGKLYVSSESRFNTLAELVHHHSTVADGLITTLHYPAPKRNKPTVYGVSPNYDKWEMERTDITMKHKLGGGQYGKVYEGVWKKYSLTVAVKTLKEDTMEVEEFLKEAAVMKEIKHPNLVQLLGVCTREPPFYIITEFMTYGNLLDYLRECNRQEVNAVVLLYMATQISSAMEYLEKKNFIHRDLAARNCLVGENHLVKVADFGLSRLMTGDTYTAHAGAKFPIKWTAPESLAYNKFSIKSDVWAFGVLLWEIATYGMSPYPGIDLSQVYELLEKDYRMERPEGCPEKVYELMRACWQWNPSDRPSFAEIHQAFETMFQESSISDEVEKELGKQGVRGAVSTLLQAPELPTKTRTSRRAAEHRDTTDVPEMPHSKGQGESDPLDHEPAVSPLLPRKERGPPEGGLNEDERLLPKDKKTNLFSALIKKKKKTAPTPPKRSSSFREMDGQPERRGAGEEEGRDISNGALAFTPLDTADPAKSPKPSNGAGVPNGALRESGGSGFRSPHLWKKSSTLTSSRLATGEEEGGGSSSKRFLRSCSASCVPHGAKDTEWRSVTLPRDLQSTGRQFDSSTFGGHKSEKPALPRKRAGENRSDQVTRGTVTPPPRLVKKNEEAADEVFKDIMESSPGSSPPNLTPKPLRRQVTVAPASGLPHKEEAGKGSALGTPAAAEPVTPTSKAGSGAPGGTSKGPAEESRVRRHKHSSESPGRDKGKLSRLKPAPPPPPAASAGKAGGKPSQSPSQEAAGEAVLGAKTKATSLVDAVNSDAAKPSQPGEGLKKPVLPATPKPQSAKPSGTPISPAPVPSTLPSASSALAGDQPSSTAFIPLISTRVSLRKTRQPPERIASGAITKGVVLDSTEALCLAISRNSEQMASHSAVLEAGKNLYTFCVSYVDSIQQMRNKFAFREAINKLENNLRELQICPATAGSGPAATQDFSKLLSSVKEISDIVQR

[7] = target: Tyrosine-protein kinase Fer (Homo sapiens, UniProt P16591); experiment: Inhibition of FER (unknown origin) ACT labeling site by KiNativ Profiling analysis
Tyrosine-protein kinase Fer, sequence (P16591 whole entry): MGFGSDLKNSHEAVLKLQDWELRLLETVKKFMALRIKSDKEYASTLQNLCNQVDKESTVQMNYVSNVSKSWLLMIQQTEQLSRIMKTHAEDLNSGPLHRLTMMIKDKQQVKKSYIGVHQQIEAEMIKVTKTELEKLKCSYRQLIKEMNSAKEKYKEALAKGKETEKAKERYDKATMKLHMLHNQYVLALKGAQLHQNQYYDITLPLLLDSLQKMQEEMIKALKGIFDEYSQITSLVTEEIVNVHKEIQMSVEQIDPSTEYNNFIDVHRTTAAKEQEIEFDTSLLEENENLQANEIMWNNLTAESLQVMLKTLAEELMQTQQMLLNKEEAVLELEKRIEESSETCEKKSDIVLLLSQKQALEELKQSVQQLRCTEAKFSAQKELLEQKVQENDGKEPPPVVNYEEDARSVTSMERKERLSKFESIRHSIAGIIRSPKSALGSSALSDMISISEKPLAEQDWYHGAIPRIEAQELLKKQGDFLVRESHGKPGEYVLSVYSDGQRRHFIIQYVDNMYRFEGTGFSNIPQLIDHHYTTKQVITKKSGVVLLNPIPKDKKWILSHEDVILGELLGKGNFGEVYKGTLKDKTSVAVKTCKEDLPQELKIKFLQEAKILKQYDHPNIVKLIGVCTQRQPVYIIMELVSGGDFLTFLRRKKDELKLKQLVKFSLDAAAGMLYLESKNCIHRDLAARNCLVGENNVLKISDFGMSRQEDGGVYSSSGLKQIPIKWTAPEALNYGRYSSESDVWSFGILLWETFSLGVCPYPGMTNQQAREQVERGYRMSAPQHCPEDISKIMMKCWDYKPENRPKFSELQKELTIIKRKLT

[8] = target: Protein kinase C theta type (Homo sapiens) (UniProt Q04759); experiment: Inhibition of PRKCQ (unknown origin) at 10 uM by Ambit Kinomescan binding assay
[9] = target: Interferon-induced, double-stranded RNA-activated protein kinase (Homo sapiens) (UniProt P19525); experiment: Inhibition of PRKR (unknown origin) at 10 uM by Ambit Kinomescan binding assay
[10] = target: T2, Tyrosine-protein kinase CSK (Homo sapiens, UniProt P41240); experiment: Inhibition of CSK ACT labeling site harbouring VSDFGLTKEASSTQDTGKLPVK in human A-375 cells at 5 uM by KiNativ Profiling analysis relative to control; format: cell-based
T2 sequence (P41240 2-450 limits assumed): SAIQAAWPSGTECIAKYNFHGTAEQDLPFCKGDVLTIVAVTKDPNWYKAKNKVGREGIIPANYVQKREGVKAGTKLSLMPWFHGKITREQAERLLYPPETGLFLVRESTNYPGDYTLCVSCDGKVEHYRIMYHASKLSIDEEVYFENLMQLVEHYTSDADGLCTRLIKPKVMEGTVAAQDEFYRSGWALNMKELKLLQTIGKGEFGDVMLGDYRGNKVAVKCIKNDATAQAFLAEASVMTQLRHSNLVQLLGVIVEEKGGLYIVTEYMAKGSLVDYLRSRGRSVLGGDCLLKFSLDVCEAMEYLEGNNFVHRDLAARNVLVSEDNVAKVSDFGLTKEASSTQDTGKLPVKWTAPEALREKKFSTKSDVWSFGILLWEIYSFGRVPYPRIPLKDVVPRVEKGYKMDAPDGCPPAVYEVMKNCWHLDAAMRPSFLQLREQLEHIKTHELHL

[11] = target: T3, Serine/threonine-protein kinase LATS2 (Homo sapiens) (UniProt Q9NRM7); experiment: Inhibition of LATS2 Lys2 labeling site in human A-375 cells at 5 uM by KiNativ Profiling analysis relative to control; format: cell-based
T3 sequence (whole entry): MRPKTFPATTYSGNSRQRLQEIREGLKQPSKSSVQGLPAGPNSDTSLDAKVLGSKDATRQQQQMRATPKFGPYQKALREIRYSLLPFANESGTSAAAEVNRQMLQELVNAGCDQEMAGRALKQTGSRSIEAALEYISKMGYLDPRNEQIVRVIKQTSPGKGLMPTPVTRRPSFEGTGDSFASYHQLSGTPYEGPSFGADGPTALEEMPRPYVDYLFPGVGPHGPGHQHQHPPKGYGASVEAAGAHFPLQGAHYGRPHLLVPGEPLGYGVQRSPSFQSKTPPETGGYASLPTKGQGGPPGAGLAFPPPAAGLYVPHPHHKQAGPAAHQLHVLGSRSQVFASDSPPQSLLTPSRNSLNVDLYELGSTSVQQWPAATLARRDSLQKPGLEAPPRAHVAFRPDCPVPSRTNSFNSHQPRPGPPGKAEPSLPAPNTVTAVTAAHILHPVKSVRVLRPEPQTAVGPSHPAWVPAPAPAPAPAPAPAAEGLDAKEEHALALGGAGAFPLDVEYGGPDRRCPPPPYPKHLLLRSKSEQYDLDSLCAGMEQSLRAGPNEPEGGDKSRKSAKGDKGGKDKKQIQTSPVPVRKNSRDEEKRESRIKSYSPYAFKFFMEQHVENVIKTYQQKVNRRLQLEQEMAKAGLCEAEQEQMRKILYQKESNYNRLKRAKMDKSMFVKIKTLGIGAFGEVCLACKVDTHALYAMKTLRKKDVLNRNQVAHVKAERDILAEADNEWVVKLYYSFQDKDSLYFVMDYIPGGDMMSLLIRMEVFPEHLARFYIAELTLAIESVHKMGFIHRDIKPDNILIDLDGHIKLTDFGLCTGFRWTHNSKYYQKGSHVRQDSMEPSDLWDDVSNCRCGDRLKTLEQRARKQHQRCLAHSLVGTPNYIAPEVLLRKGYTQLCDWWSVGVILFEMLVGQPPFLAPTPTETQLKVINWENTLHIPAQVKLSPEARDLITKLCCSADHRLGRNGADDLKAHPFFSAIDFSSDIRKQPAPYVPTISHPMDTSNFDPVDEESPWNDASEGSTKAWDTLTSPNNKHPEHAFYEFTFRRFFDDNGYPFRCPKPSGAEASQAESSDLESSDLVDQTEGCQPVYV

[12] = target: T2, Tyrosine-protein kinase CSK; experiment: Inhibition of CSK ACT labeling site harbouring VSDFGLTKEASSTQDTGKLPVKWTAPEALR in human Huh-7 cells at 10 uM by KiNativ Profiling analysis relative to control; format: cell-based
[13] = target: DNA-dependent protein kinase catalytic subunit (Homo sapiens) (UniProt P78527); experiment: Inhibition of PRKDC ATP labeling site harbouring KGGSWIQEINVAEK in human Huh-7 cells at 1 uM by KiNativ Profiling analysis relative to control; format: cell-based
[14] = test system: Proto-oncogene tyrosine-protein kinase receptor Ret (Homo sapiens), P07949 [M918T]; experiment: Inhibition of RET M918T mutant (unknown origin) at 10 uM by Ambit Kinomescan binding assay relative to control; values are per cent of control
Proto-oncogene tyrosine-protein kinase receptor Ret (Homo sapiens), P07949 [M918T], sequence (P07949 whole entry M918T): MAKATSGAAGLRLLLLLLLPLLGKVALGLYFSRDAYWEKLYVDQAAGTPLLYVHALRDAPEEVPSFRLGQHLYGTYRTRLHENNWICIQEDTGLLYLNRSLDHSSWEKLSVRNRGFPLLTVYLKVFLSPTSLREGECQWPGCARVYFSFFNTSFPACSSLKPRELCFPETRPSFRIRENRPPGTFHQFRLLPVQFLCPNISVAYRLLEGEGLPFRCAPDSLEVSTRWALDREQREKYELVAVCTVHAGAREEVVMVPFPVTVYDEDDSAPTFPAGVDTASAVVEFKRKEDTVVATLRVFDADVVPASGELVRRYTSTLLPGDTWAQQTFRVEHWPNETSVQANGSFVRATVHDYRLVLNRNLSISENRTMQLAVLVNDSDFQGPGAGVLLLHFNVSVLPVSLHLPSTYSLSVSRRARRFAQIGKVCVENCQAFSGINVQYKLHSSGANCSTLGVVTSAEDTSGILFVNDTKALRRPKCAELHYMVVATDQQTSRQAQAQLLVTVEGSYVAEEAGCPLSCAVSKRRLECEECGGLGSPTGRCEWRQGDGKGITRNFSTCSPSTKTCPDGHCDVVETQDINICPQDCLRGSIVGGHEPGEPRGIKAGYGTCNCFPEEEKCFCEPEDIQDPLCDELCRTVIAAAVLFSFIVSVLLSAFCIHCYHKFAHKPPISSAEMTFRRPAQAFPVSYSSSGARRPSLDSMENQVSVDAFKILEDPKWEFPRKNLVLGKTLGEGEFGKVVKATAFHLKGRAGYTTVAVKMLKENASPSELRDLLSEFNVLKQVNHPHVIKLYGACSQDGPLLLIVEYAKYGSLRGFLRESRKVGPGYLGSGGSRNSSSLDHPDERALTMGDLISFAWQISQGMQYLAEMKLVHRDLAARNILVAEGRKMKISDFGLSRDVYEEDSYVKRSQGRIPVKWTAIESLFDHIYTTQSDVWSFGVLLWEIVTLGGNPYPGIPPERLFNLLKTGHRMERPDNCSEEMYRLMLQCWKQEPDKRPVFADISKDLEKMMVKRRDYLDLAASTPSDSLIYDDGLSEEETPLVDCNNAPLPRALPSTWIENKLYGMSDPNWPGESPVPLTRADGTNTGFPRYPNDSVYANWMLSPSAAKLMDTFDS

## CNc1cc(Oc2cc(C(=O)Nc3cc(N4CCN(C)CC4)cc(C(F)(F)F)c3)ccc2C)ncn1
[1]
  inhibition: -3.5%

## CCN1CCN(Cc2ccc(NC(=O)c3ccc(C)c(/C=C/c4cnc5[nH]ccc5c4OC)c3)cc2C(F)(F)F)CC1
[2]
  inhibition: 7.6%
[3]
  inhibition: 23%
[4]
  inhibition: 36.2%
[5]
  inhibition: -8.5%
[6]
  percent of control: 0.85%

## CCN1CCN(Cc2ccc(NC(=O)c3ccc(C)c(Oc4ccnc5[nH]ccc45)c3)cc2C(F)(F)F)CC1
[7]
  IC50: 0.0823 µM
[8]
  inhibition: inactive
[9]
  inhibition: inactive
[10]
  inhibition: 78.2%
[11]
  inhibition: 5.5%
[12]
  inhibition: -2.7%
[13]
  inhibition: 0.9%
[14]
  residual activity: 0%
